Experimental data reported in patent US8946248B2, “HIV inhibiting 5-substituted pyrimidines” (priority 2004, dated 2015).

How the values were obtained:
[1] = tested on: Strain D, mutation Y188L in HIV reverse transcriptase; experiment: Antiviral activity, cellular assay, strain D; format: cell-based; details: for pEC50 D: HIV strain with RT mutation Y188L, cellular assay
Procedure: (§1) Because of the increasing emergence of drug resistant HIV strains, the present compounds were tested for their potency against clinically isolated HIV strains harboring several mutations. These mutations are associated with resistance to reverse transcriptase inhibitors and result in viruses that show various degrees of phenotypic cross-resistance to the currently commercially available drugs such as for instance AZT and delavirdine.
(§2) The antiviral activity of the compound of the present invention has been evaluated in the presence of wild type HIV and HIV mutants bearing mutations at the reverse transcriptase gene. The activity of the compounds is evaluated using a cellular assay and the residual activity is expressed in pEC50 values. The columns IIIB and A-G in the table list the pEC50 values against various strains IIIB, A-G.
Strain D contains mutation Y188L in HIV reverse transcriptase, […]

[2] = tested on: Strain IIIB, wild type HIV-LAI strain; experiment: Antiviral activity, cellular assay, strain IIIB; format: cell-based
Procedure: as §1, §2
Strain IIIB is wild type HIV-LAI strain

[3] = tested on: Strain A, mutation Y181C in HIV reverse transcriptase; experiment: Antiviral activity, cellular assay, strain A; format: cell-based; details: for pEC50 A: HIV strain with RT mutation Y181C, cellular assay
Procedure: as §1, §2
Strain A contains mutation Y181C in HIV reverse transcriptase, […]

[4] = tested on: Strain B, mutation K103N in HIV reverse transcriptase; experiment: Antiviral activity, cellular assay, strain B; format: cell-based; details: for pEC50 B: HIV strain with RT mutation K103N, cellular assay
Procedure: as §1, §2
Strain B contains mutation K103N in HIV reverse transcriptase, […]

[5] = Antiviral activity, cellular assay, strain G; format: cell-based, HIV; details: Human immunodeficiency virus 1, read-out: pEC50 G (converted)
Procedure: as §1, §2

[6] = tested on: Strain F, mutations K103N and Y181C in HIV reverse transcriptase; experiment: microbe, parasite or virus in culture; format: cell-based; details: for pEC50 F: HIV strain with RT mutations K103N and Y181C, cellular assay
[7] = tested on: Strain E, mutations L100I and K103N in HIV reverse transcriptase; experiment: Antiviral activity, cellular assay, strain E; format: cell-based; details: for pEC50 E: HIV strain with RT mutations L100I and K103N, cellular assay
Procedure: as §1, §2
Strain E contains mutations L100I and K103N in HIV reverse transcriptase, […]

[8] = tested on: Strain C, mutation L100I in HIV reverse transcriptase; experiment: Antiviral activity, cellular assay, strain C; format: cell-based; details: for pEC50 C: HIV strain with RT mutation L100I, cellular assay
Procedure: as §1, §2
Strain C contains mutation L100I in HIV reverse transcriptase, […]

[9] = tested on: Strain G, mutations L100I, K103N, Y181C, V179I, Y181C, E138G, V179I, L2214F, V278V/1 and A327A/V in HIV reverse transcriptase; experiment: Antiviral activity, cellular assay, strain G; format: cell-based; details: HIV strain with RT mutations L100I, K103N, Y181C, V179I, E138G, L2214F, V278V/1 and A327A/V; cellular assay
Procedure: as §1, §2

## N#C/C=C/c1cc(F)c(Nc2nc(Nc3ccc(C#N)cc3)ncc2Br)c(Cl)c1
other
  melting point: 236 °C

## Cc1cc(/C=C/C#N)cc(C)c1Nc1nc(Nc2ccc(C#N)cc2)ncc1NC=O [Compound 13]
[1]; Human immunodeficiency virus 1, read-out: pEC50 D (converted)
  EC50: 3.16 nM
[2]; Human immunodeficiency virus 1, IIIB
  EC50: 0.398 nM
[3]; Human immunodeficiency virus 1, read-out: pEC50 A (converted)
  EC50: 2.51 nM
[4]; Human immunodeficiency virus 1, read-out: pEC50 B (converted)
  EC50: 0.631 nM
[5]
  EC50: 1000 nM
[6]; Human immunodeficiency virus 1, read-out: pEC50 F (converted)
  EC50: 3.98 nM
[7]; Human immunodeficiency virus 1, read-out: pEC50 E (converted)
  EC50: 6.31 nM
[8]; Human immunodeficiency virus 1, read-out: pEC50 C (converted)
  EC50: 0.631 nM

## CCON=Cc1cnc(Nc2ccc(C#N)cc2)nc1Nc1c(C)cc(/C=C/C#N)cc1C [Compound 31]
[1]
  pEC50 D: 8.2
[2]
  pEC50 IIIB: 8.5
[3]
  pEC50 A: 8.2
[4]
  pEC50 B: 8.5
[9]
  pEC50 G: 5.1
[6]
  pEC50 F: 8.2
[7]
  pEC50 E: 8.2
[8]
  pEC50 C: 8.5

## N#C/C=C/c1cc(F)c(Nc2nc(Nc3ccc(C#N)cc3)ncc2[N+](=O)[O-])c(Cl)c1
other
  melting point: > 250 °C

## Cc1cc(/C=C/C#N)cc(C)c1Nc1nc(Nc2ccc(C#N)cc2)ncc1Br
other
  melting point: > 250 °C

## Cc1cc(/C=C/C#N)cc(C)c1Nc1nc(Nc2ccc(C#N)cc2)ncc1C(N)=O
other
  melting point: > 250 °C

## Cc1cc(CCC#N)cc(C)c1Nc1nc(Nc2ccc(C#N)cc2)ncc1C(N)=O [Compound 26]
[1]
  pEC50 D: 8.6
[2]
  pEC50 IIIB: 9.7
[3]
  pEC50 A: 9
[4]
  pEC50 B: 9.7
[9]
  pEC50 G: 6.4
[6]
  pEC50 F: 9.2
[7]
  pEC50 E: 9.2
[8]
  pEC50 C: 10

## CON=Cc1cnc(Nc2ccc(C#N)cc2)nc1Nc1c(C)cc(/C=C/C#N)cc1C [Compound 32]
[1]
  pEC50 D: 8.6
[2]
  pEC50 IIIB: 8.5
[3]
  pEC50 A: 8.5
[4]
  pEC50 B: 8.7
[9]
  pEC50 G: 6
[6]
  pEC50 F: 8.7
[7]
  pEC50 E: 8.6
[8]
  pEC50 C: 9.3

## N#C/C=C/c1cc(F)c(Nc2nc(Nc3ccc(C#N)cc3)ncc2N)c(Cl)c1
other
  melting point: > 250 °C

## Cc1cc(/C=C/C#N)cc(C)c1Nc1nc(Nc2ccc(C#N)cc2)ncc1N
other
  melting point: > 250 °C

## CC(=O)Nc1cnc(Nc2ccc(C#N)cc2)nc1Nc1c(C)cc(/C=C/C#N)cc1C
other
  melting point: > 250 °C

## Cc1cc(/C=C/C#N)cc(C)c1Nc1nc(Nc2ccc(C#N)cc2)ncc1[N+](=O)[O-]
other
  melting point: > 250 °C

## Cc1cc(/C=C/C#N)cc(C)c1Nc1nc(Nc2ccc(C#N)cc2)ncc1C(=O)O
other
  melting point: > 250 °C

## CC(=O)Nc1cnc(Nc2ccc(C#N)cc2)nc1Nc1c(F)cc(/C=C/C#N)cc1Cl [Compound 28]
[1]
  pEC50 D: 7.3
[2]
  pEC50 IIIB: 8.8
[3]
  pEC50 A: 7.9
[4]
  pEC50 B: 8.6
[9]
  pEC50 G: 4.7
[6]
  pEC50 F: 7.3
[7]
  pEC50 E: 7
[8]
  pEC50 C: 8.3
